Values of other authors as cited in PMC6154651 (Molecules : A Journal of Synthetic Chemistry and Natural …, 2017).

Tests used:
LCA-induced cholestasis = settings: mice, low dose 20 mg/kg
FXR [1] = settings: HepG2 cells
[2] = test system: FXR-LBD (ligand binding domain)
obstructive cholestasis = settings: bile duct-ligated mice
FXR [3] = test system: FXR; set-up: method as in PMID 16626693

In the case of `CC1(C)CC[C@]2(C(=O)O)CC[C@]3(C)C(=CC[C@@H]4[C@@]5(C)CC[C@H](O)C(C)(C)[C@@H]5CC[C@]43C)[C@@H]2C1` [Compound 1, oleanolic acid], the “protection against LCA-induced cholestasis” value (LCA-induced cholestasis) is listed as “could protect”, the “CDCA induction of bile salt export protein (BSEP)” value (FXR [1]; 25 μM) is listed as “partially blocked” and the “expression of organic solute transporter (OST-β)” value (FXR [1]; 25 μM) is listed as “did not affect”. For the same molecule, the “expression levels of cholesterol 7α-hydroxylase (CYP7A1)” value (FXR [1]) was “suppressed”, the “expression of short heterodimer partner (SHP)” value (FXR [1]) was “slightly enhanced” and the “activity of FXR-LBD induced by CDCA” value [2] was “dose-dependently suppressed”. For the same molecule, the “effect on obstructive cholestasis” value (obstructive cholestasis) was “attenuate obstructive cholestasis”.
For `CC1(C)CCC2(C(=O)O)CCC3(C)C(=CCC4C5(C)CCC(OC(=O)c6ccccc6C(=O)O)C(C)(C)C5CCC43C)C2C1` (stereo not drawn) [NPLC441, 3-β-(2-carboxybenzoyloxy)-oleanolic acid], the “binding to retinoid X receptor-LBD” value (retinoid X receptor-LBD) is listed as “bound strongly”.
For `C[C@@H]1O[C@@H](O[C@H]2[C@H](OC(=O)[C@]34CCC(C)(C)C[C@H]3C3=CC[C@@H]5[C@@]6(C)C[C@H](O)[C@H](O[C@@H]7O[C@H](CO)[C@@H](O)[C@H](O)[C@H]7O)C(CO)(CO)[C@@H]6CC[C@@]5(C)[C@]3(C)C[C@H]4O)OC[C@H](O)[C@@H]2O)[C@H](O)[C@H](O)[C@H]1O[C@@H]1OC[C@@H](O)[C@H](O[C@@H]2OC[C@](O)(CO)[C@H]2O)[C@H]1O` [platycodin D], the “activity on FXR” value (FXR [3]) is given as “weak activity”.
